This note sets out measurements from the supplement of paper PMC8239392.

In assay [1] the test system is TAZ-IND MCF10A-TAZ tumor cells. In words: cell viability relative to DMSO control; higher = less cytotoxic; extreme values may be limits of the assay. The following applies: 72 h. Here is the method: (§1)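 TAZ-dependent (grown with 2 ug/ml dox) and TAZ-independent MCF10A-TAZ tumor-derived breast cancer stem-like cells were plated in 384-well plates and treated with serially diluted compounds (0.65-10 uM) for 72 h. Viability was read by resazurin assay and expressed as % of DMSO-treated control.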

Assay [2] deals with TAZ-DEP MCF10A-TAZ tumor cells. Described as above. Particulars: 72 h. Here is the method:
as §1

For orientation: cell viability means a read-out of living cells in per cent, often relative to untreated cells. For the molecule `O=C([C@@H](Cc1cccc(C(F)(F)F)c1)NS(=O)(=O)c1cc(F)c2c(c1)CCNC2)N1CCCC1` [PFI-2], the cell viability in assay [1] (0.65 µM) was determined as 97%; in assay [1] (1.25 µM), 94%; in assay [1] (2.5 µM), 92%; in assay [1] (5 µM), 85%; in assay [1] (10 µM) it was 78%; in assay [2] (0.65 µM), 94%. For the same molecule, the cell viability came out at 85% in assay [2] (1.25 µM), 72% in assay [2] (2.5 µM), 56% in assay [2] (5 µM) and 46% in assay [2] (10 µM).
Take `N#CC(=C(/N)Sc1ccccc1N)/C(C#N)=C(\N)Sc1ccccc1N` [U0126-EtOH]: the cell viability in assay [1] (0.65 µM) stood at 95%; in assay [1] (1.25 µM), 94%; in assay [1] (2.5 µM), 89%; in assay [1] (5 µM) it was 84%; in assay [1] (10 µM), 79%; in assay [2] (0.65 µM) it was 99%. Besides, the cell viability in assay [2] (1.25 µM) stood at 94%; in assay [2] (2.5 µM), 84%; in assay [2] (5 µM), 70%; in assay [2] (10 µM), 67%.
In the case of `O=C(/C=C/c1ccc2ccccc2n1)c1ccncc1` [PFK15], the cell viability was found to be 98% in assay [1] (0.65 µM); 98% in assay [1] (1.25 µM); 99% in assay [1] (2.5 µM); 95% in assay [1] (5 µM); 97% in assay [1] (10 µM); 100% in assay [2] (0.65 µM). In addition, the cell viability in assay [2] (1.25 µM) was 100%; in assay [2] (2.5 µM), 81%; in assay [2] (5 µM) it was 47%; in assay [2] (10 µM) it was 31%.
As for `O=C(NOC[C@H](O)CO)c1ccc(F)c(F)c1Nc1ccc(I)cc1F`, the cell viability is 82% in assay [1] (0.65 µM); 87% in assay [1] (1.25 µM); 84% in assay [1] (2.5 µM); 80% in assay [1] (5 µM); 78% in assay [1] (10 µM); 52% in assay [2] (0.65 µM). The cell viability in assay [2] (1.25 µM) is 56%; in assay [2] (2.5 µM) it was 53%; in assay [2] (5 µM), 47%; in assay [2] (10 µM), 48%.
Regarding `CCN(CC)CCCC(C)Nc1nc(C)cc(Nc2ccc3nc(C)cc(N)c3c2)n1` (stereo not given), the cell viability in assay [1] (0.65 µM) amounted to 80%; in assay [1] (1.25 µM), 81%; in assay [1] (2.5 µM), 90%; in assay [1] (5 µM), 80%; in assay [1] (10 µM), 73%; in assay [2] (0.65 µM), 50%. Moreover, the cell viability in assay [2] (1.25 µM) was 54%; in assay [2] (2.5 µM), 47%; in assay [2] (5 µM) it was 50%; in assay [2] (10 µM), 34%.
For the molecule `COC1CCN(C(=O)c2cc(Cc3n[nH]c(=O)c4ccccc34)ccc2F)CC1` [AZD2461], the cell viability in assay [1] (0.65 µM) was 94%; in assay [1] (1.25 µM), 89%; in assay [1] (2.5 µM), 91%; in assay [1] (5 µM), 83%; in assay [1] (10 µM), 78%; in assay [2] (0.65 µM) it was 94%. Further, the cell viability in assay [2] (1.25 µM) was determined as 91%; in assay [2] (2.5 µM), 94%; in assay [2] (5 µM), 70%; in assay [2] (10 µM) it was 56%.
Turning to `CC(=O)c1c(C)c2cnc(Nc3ccc(N4CCNCC4)cn3)nc2n(C2CCCC2)c1=O`, the cell viability in assay [1] (0.65 µM) was determined as 100%; in assay [1] (1.25 µM) it was 100%; in assay [1] (2.5 µM), 100%; in assay [1] (5 µM), 100%; in assay [1] (10 µM), 96%; in assay [2] (0.65 µM) it was 79%. Besides, the cell viability is 73% in assay [2] (1.25 µM), 70% in assay [2] (2.5 µM), 59% in assay [2] (5 µM) and 41% in assay [2] (10 µM).
Regarding `Nc1nc(OCc2cc(Br)cs2)c2[nH]cnc2n1` [Lomeguatrib], the cell viability is 96% in assay [1] (0.65 µM); 98% in assay [1] (1.25 µM); 97% in assay [1] (2.5 µM); 100% in assay [1] (5 µM); 85% in assay [1] (10 µM); 96% in assay [2] (0.65 µM). For the same molecule, the cell viability was 91% in assay [2] (1.25 µM), 90% in assay [2] (2.5 µM), 55% in assay [2] (5 µM) and 36% in assay [2] (10 µM).
As to `Cc1[nH]nc(C(F)(F)F)c1Cc1sc2c(c1C(=O)N1C[C@](C)(O)CO1)c(=O)n(C)c(=O)n2C(C)C` [AZD3965], the cell viability came out at 92% in assay [1] (0.65 µM); 87% in assay [1] (1.25 µM); 91% in assay [1] (2.5 µM); 60% in assay [1] (5 µM); 47% in assay [1] (10 µM); 54% in assay [2] (0.65 µM). The cell viability worked out at 49% in assay [2] (1.25 µM), 45% in assay [2] (2.5 µM), 39% in assay [2] (5 µM) and 32% in assay [2] (10 µM).
Consider `NCCCC[C@@H]1NC(=O)[C@@H](Cc2ccc(O)cc2)NC(=O)[C@H](CC(=O)O)NC(=O)CNC(=O)[C@H](CCCN=C(N)N)NC1=O` [Cyclo(RGDyK)], for which the cell viability is 98% in assay [1] (0.65 µM); 94% in assay [1] (1.25 µM); 86% in assay [1] (2.5 µM); 74% in assay [1] (5 µM); 65% in assay [1] (10 µM); 99% in assay [2] (0.65 µM). Further, the cell viability in assay [2] (1.25 µM) came out at 86%; in assay [2] (2.5 µM) it was 59%; in assay [2] (5 µM) it was 49%; in assay [2] (10 µM), 27%.
In the case of `CN1CCN(CCCNc2ncc(Cl)c(-c3cc4c(C(=O)NC5CC5)cccc4s3)n2)CC1`, the cell viability is 94% in assay [1] (0.65 µM); 91% in assay [1] (1.25 µM); 87% in assay [1] (2.5 µM); 84% in assay [1] (5 µM); 80% in assay [1] (10 µM); 74% in assay [2] (0.65 µM). Also, the cell viability in assay [2] (1.25 µM) amounted to 67%; in assay [2] (2.5 µM), 63%; in assay [2] (5 µM), 63%; in assay [2] (10 µM), 65%.
Turning to `O=[N+]([O-])C=Cc1ccc2c(c1)OCO2`, the cell viability in assay [1] (0.65 µM) was found to be 100%; in assay [1] (1.25 µM), 99%; in assay [1] (2.5 µM), 98%; in assay [1] (5 µM), 98%; in assay [1] (10 µM), 31%; in assay [2] (0.65 µM), 100%. Moreover, the cell viability came out at 100% in assay [2] (1.25 µM), 100% in assay [2] (2.5 µM), 78% in assay [2] (5 µM) and 1% in assay [2] (10 µM).
For `COCCOc1cnc2ccn([C@H](C)c3nnc4c(F)cc(-c5cnn(C)c5)cn34)c(=O)c2c1` [AMG 337], the cell viability in assay [1] (0.65 µM) stood at 97%; in assay [1] (1.25 µM) it was 97%; in assay [1] (2.5 µM) it was 100%; in assay [1] (5 µM), 97%; in assay [1] (10 µM), 100%; in assay [2] (0.65 µM), 88%. Besides, the cell viability was determined as 84% in assay [2] (1.25 µM), 77% in assay [2] (2.5 µM), 68% in assay [2] (5 µM) and 60% in assay [2] (10 µM).
With `COc1ccccc1S(=O)(=O)Nc1ccc2c(c1)CN(C)C(=O)N2`, the cell viability in assay [1] (0.65 µM) turned out to be 100%; in assay [1] (1.25 µM) it was 100%; in assay [1] (2.5 µM), 94%; in assay [1] (5 µM), 91%; in assay [1] (10 µM), 85%; in assay [2] (0.65 µM), 91%. In addition, the cell viability in assay [2] (1.25 µM) worked out at 79%; in assay [2] (2.5 µM), 63%; in assay [2] (5 µM) it was 54%; in assay [2] (10 µM), 41%.
On to `CNC(=O)c1cc(Oc2ccc(NC(=O)Nc3ccc(Cl)c(C(F)(F)F)c3)cc2)ccn1` [Sorafenib], for which the cell viability is 100% in assay [1] (0.65 µM); 99% in assay [1] (1.25 µM); 100% in assay [1] (2.5 µM); 98% in assay [1] (5 µM); 93% in assay [1] (10 µM); 100% in assay [2] (0.65 µM). Besides, the cell viability is 98% in assay [2] (1.25 µM), 92% in assay [2] (2.5 µM), 84% in assay [2] (5 µM) and 72% in assay [2] (10 µM).
